Measured values published in US9399788B2, “Method for inspecting susceptibility of bacteria or fungi to antimicrobial drug and system for use in the same” (priority 2011, dated 2016).
≈ marks a conversion by molar mass, not a printed value.

Legend:
[1] = system: #2 strain of Pseudomonas aeruginosa (multi-drug resistant strain); experiment: MIC by method using micro-device 1 (microscope observation of growth and shape in flow channel); format: cell-based; conditions: for MIC: Pseudomonas aeruginosa, read-out: MIC (minimum inhibitory concentration)
Protocol: Thus, antimicrobial drug solutions were prepared.
Pseudomonas aeruginosa was pre-cultured at 37° C. for 24 hours using a Mueller-Hinton Agar (Becton, Dickinson and Company) plate. A colony was suspended in a Mueller-Hinton broth so as to have MacFarland=0.5 (OD600=0.132). As Pseudomonas aeruginosa, multi-drug resistant strains #2 and #5 (available from BML) and an S1 strain (susceptibility strain, available from BML) were used.
The antimicrobial drug solution obtained in the (2) above and the culture solution obtained in the (3) above were mixed at a volume ratio of 1 9, and 1 μL of a resultant mixture was injected into each inlet of a micro-device 1. As a control, sterile water as a substitute for the antimicrobial drug solution and the culture solution were mixed at a volume ratio of 1:9, and 1 μL of a resultant mixture was injected into an inlet of the micro-device 1. Then, the micro-device 1 was placed in a petri dish, and the petri dish was placed in an airtight container. Kimwipe (Trade Mark) containing water was placed in each of the petri dish and the airtight container. The airtight container was placed in an incubator at 37° C. and incubated for 3 hours. The relative humidity of each of the airtight container and the petri dish was 97%.
The micro-device 1 was taken out of the airtight container, and an increase or decrease in the amount of bacteria and a change in shape relative to the control in an observation area was checked by a microscope, and the MIC (minimum inhibitory concentration) was determined.

[2] = system: #2 strain of Pseudomonas aeruginosa (multi-drug resistant strain); experiment: MIC by broth microdilution method according to the CLSI standards (standard method); format: cell-based
[3] = method using the micro-device, 37° C., 3 hours incubation

Compound | determination based on the break point of CLSI ([1]; MIC by method using the micro-device) | MIC (minimum inhibitory concentration) [1, 3] [µg/mL] | determination based on the break point of CLSI ([2]; MIC by standard method) | MIC (minimum inhibitory concentration) ([2]; standard method (broth microdilution, CLSI)) [µg/mL] | MIC [1, 3] [µg/mL] | MIC ([2]; Pseudomonas aeruginosa, standard method (broth microdilution, CLSI), read-out: MIC (minimum inhibitory concentration)) [µg/mL]
Imipenem/Cilastatin [IPM] | Resistance (R) | 16 | Resistance (R) | 32 | – | –
NCC[C@H](O)C(=O)N[C@@H]1C[C@H](N)[C@@H](O[C@H]2O[C@H](CN)[C@@H](O)[C@H](O)[C@H]2O)[C@H](O)[C@H]1O[C@H]1O[C@H](CO)[C@@H](O)[C@H](N)[C@H]1O [AMK, Amikacin] | – | – | – | – | ≥ 32 | 64 (≈ 109 µM)
O=C(O)c1cn(C2CC2)c2cc(N3CCNCC3)c(F)cc2c1=O [CPFX, Ciprofloxacin] | – | – | – | – | ≥ 4 | –
